The text below walks through data of PMC8745263 (International Journal of Molecular Sciences, 2021).

The nature of the series: RP-HPLC mobility of peptide before and after H2O2 oxidation (hydrophilicity). In kind it is physicochemical. The following applies: RP-HPLC/LC-MS, C18 column, H2O/CH3CN with TFA; before and after 3% H2O2 oxidation; Supplementary Figure S1A,B. Here is the method:
GDF11[48-64]wt was converted to the variant with oxidized methionines by treatment with 3% H2O2, monitoring the reaction progression by reverse-phase HPLC chromatography (RP-HPLC) and mass spectrometry, using the un-oxidized precursor as control. The occurrence of the peroxide oxidation rendered the peptide more hydrophilic than its unoxidized counterpart, as clearly indicated in Supplementary Figure S1A,B by the shift in the RP-HPLC mobility of GDF11[48-64]ox to shorter retention time (9.97 min) with respect to that of GDF11[48-64]wt (11.41 min).
All protected amino acids, including 7-N-Fmoc-aminocoumarin-4-acetic acid (Fmoc-ACA-OH), Fmoc-Met(O)-OH, the coupling agents (1-[Bis(dimethylamino)methylene]-1H-1,2,3-triazol [4,5-b]pyridinium 3-oxid-hexafluorophosphate (Hexafluorophosphate Azabenzotriazole Tetramethyl Uronium, HATU), diisopropylcarbodiimide (DIC), ethyl cyanohydroxyiminoacetate (OXYMA)) and Fmoc-Rink Amide AM Resin used for peptide synthesis were purchased from IRIS Biotech GmbH (Marktrewitz, DE). Acetonitrile (CH3CN), dimethylformamide (DMF), trifluoroacetic acid (TFA), and methanol (CH3OH) were purchased from ROMIL (Dublin, Ireland). […]
Figure S1. Oxidation reaction of GDF11[48-64]wt with hydrogen peroxide monitored by LC-ESI-TOF-MS (LC-MS) analysis. […] After incubation, the samples were collected and analyzed by LC-MS. […]

On to “Ac-EYM(ox)FM(ox)QKYPHTHLVQQA-NH2 [GDF11[48-64] wt ox, GDF11[48-64]wt bearing sulphoxide groups on M50 and M52, by 3% H2O2 treatment]”, for which the “RP-HPLC retention time (shift to shorter time = more hydrophilic)” value is given as 9.97 min.

With “Ac-EYMFMQKYPHTHLVQQA-NH2 [GDF11[48-64]wt, peptide reproducing the 48–64 region of GDF11 protein, acetylated and amidated]”, the “RP-HPLC retention time (shift to shorter time = more hydrophilic)” value stood at 11.41 min.
